Data published in PMC3559838 (PLoS ONE, 2013).
Each block holds one molecule with its values, some of them ahead of it.

Legend:
Acidic stability test = assay type: physicochemical; settings: for variation in concentrations between beginning and after 24 h: 37°C, acidic solutions pH 2.6–6.5; for stability in acidic solutions: 24 h incubation at 37°C, pH 2.6–6.5
Description: 1 mg/mL of belinostat-G and vorinostat-G was prepared in various vehicles with different pH values. These vehicles included 10 mM ammonium acetate (pH = 6.5), 10 mM ammonium formate (pH = 6.0), 0.1% acetic acid (pH = 3.2) and 0.1% formic acid (pH = 2.6). All of these test samples were incubated at 37°C for 24 h. Milli Q water (pH = 5.5) was used as control solution which was stored in −20°C. All the samples were analyzed by LC-MS/MS to obtain the values of peak area for belinostat-G and vorinostat-G. The acidic stability of both conjugated compounds was evaluated through comparison of peak area ratio of test samples versus control.

HepG2 cells [1] = test: MTS growth inhibition assay; assay type: cell-based, human; settings: HepG2, 72 h
Description: (§1) To the other plate, equal molar concentrations of belinostat-G were added similarly. After 72 h, cells were stained with Gentian Violet paint (0.5% w/v; B.P.) and assessed for viability. […] After incubating 24 h, 100-µL drug solution or blank medium was added into each well of 96-well plates. 72 h later, 20 µL of MTS/PES was added into each well for incubation for 3 h. OD values are measured on wavelength 490 nm. Cell growth inhibition was calculated based on the […] with subtraction of background reading for only medium containing wells. The growth inhibition was defined as the percentage of the average […] from drug-treated wells over that from control wells without treatment. The experiment was done in triplicates. IC50 values were calculated using GraphPad PRISM software (GraphPad Software, Inc., La Jolla, CA, USA).

[2] = Pharmacokinetics after 30 min i.v. infusion, phase I trial in hepatocellular carcinoma patients; assay type: in vivo, human; settings: for Relative Exposure, Bel-G/Bel AUC ratio: AUC0–24 h molar ratio; for relative systemic exposure of belinostat glucuronide versus belinostat: human plasma, molar concentration AUC ratio
Description: This multicentre phase I trial of belinostat was done in Hong Kong and Singapore. All patients provided written informed consent according to Good Clinical Practice guidelines, and the protocol was approved by the institutional review boards of Prince of Wales Hospital, Hong Kong and National University Hospital, Singapore.
Venous blood samples had been collected in heparinized tubes. Collected blood samples were centrifuged at 3000 g for 10–15 min and the plasma (supernatant) was separated from the cell pellet and stored in plain tubes at –80°C till analysis. […] Briefly, vorinostat-G was used as the internal standard for belinostat-G. The mass spectrometer was operated in positive ion mode with the optimal mass transitions of belinostat-G: m/z 495>93 and vorinostat-G: m/z 441>232, respectively. The analytical method was well validated with good linearity (coefficient of determination, r^2≥0.999) in the range of 1–100 µM for belinostat-G.
Pharmacokinetic parameters were estimated based on non-compartmental analysis model using WinNonlin software version 5.3 (Pharmsight, Sunnyvale, CA, USA). […] One way analysis of variance (ANOVA) was used to determine the significance among the genotypes with Tukey posthoc tests for adjustment for comparison between individual groups. A value of p<0.05 was considered to be significant.

HepG2 cells [3] = test: Gentian Violet viability staining, 24-well plates; assay type: cell-based, human; settings: 0–10 µM, 72 h
Description: as §1

[4] = substrate: O=C(/C=C/c1cccc(S(=O)(=O)Nc2ccccc2)c1)NO; test: UGT supersome screening and kinetic analysis; assay type: in vitro ADME, human; settings: other: UGT1A1 supersomes, 10 to 750 µM substrate, Michaelis-Menten

variation in concentrations between beginning and after 24 h (Acidic stability test): < 4%
stability in acidic solutions (Acidic stability test): stable
degradation (Acidic stability test; pH 2.6, 37°C, 24 h): 7%
IC50 (MTS) (HepG2 cells [1]): cannot be converged
Relative Exposure, Bel-G/Bel AUC ratio ([2]; 600 mg/m^2): 4.79±0.46
Relative Exposure, Bel-G/Bel AUC ratio ([2]; 900 mg/m^2): 4.22±0.15
Relative Exposure, Bel-G/Bel AUC ratio ([2]; 1200 mg/m^2): 4.82±1.80
Relative Exposure, Bel-G/Bel AUC ratio ([2]; 1400 mg/m^2): 4.13±0.68
relative systemic exposure of belinostat glucuronide versus belinostat ([2]; listed as belinostat glucuronide): more than 4 fold
relative systemic exposure of belinostat glucuronide versus belinostat ([2]; listed as belinostat-G): 4 fold
Molecule: O=C(/C=C/c1cccc(S(=O)(=O)Nc2ccccc2)c1)NO[C@@H]1O[C@H](C(=O)O)[C@@H](O)[C@H](O)[C@H]1O [Belinostat-G, Belinostat glucuronide]
cytotoxicity / cell viability (staining) (HepG2 cells [3]): did not seem to affect cell viability

variation in concentrations between beginning and after 24 h (Acidic stability test): < 4%
stability in acidic solutions (Acidic stability test): stable
Molecule: O=C(CCCCCCC(=O)Nc1ccccc1)NO[C@@H]1O[C@H](C(=O)O)[C@@H](O)[C@H](O)[C@H]1O [vorinostat-G, Vorinostat glucuronide]

B1: UGT1A1 (Homo sapiens) (protein)
chain: HAGKILLIPVDGSHWLSMLGAIQQLQQRGHEIVVLAPDASLYIRDGAFYTLKTYPVPFQREDVKESFVSLGHNVFENDSFLQRVIKTYKKIKKDSAMLLSGCSHLLHNKELMASLAESSFDVMLTDPFLPCSPIVAQYLSLPTVFFLHALPCSLEFEATQCPNPFSYVPRPLSSHSDHMTFLQRVKNMLIAFSQNFLCDVVYSPYATLASEFLQREVTVQDLLSSASVWLFRSDFVKDYPRPIMPNMVFVGGINCLHQNPLSQEFEAYINASGEHGIVVFSLGSMVSEIPEKKAMAIADALGKIPQTVLWRYTGTRPSNLANNTILVKWLPQNDLLGHPMTRAFITHAGSHGVYESICNGVPMVMMPLFGDQMDNAKRMETKGAGVTLNVLEMTSEDLENALKAVINDKSYKENIMRLSSLHKDRPVEPLDLAVFWVEFVMRHKGAPHLRPAAHDLTWYQYHSLDVIGFLLAVVLTVAFITFKCCAYGYRKCLGKKGRVKKAHKSKTH
notes: purchased BD Gentest
Km [4]: 99.6 µM
Vmax [4]: 353.1 pmol/min/mg protein
Vmax/Km [4]: 3.5 µL/min/mg protein
